Literature values in patent publication US7459141B2, “Technetium-99m-labeled organic germanium nanocolloids, method of preparing the same and use thereof” (Korea Atomic Energy Research Institute, priority 2006, dated 2008).

O=C(O)C[CH2][Ge](=[O])[O][Ge](=[O])[CH2]CC(=O)O [Ge-132, bis-carboxyethylgermanium sesquioxide]
tissue concentration after an intravenous (i.v) injection (intravenous): concentrates in liver, kidney, spleen and gastrointestine tract
tissue concentration after an oral administration (oral): concentrates highly in spleen
